The record followed here is ChEMBL document CHEMBL1201862, “PubChem BioAssay data set” (2004).

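Values below derive from 48-hour exposures of cells grown in 96-well plates, with endpoints linearly interpolated between the two concentrations bracketing the appropriate inhibition level. At the GI50, growth is halved.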 Active and inactive are the calls of the source. Cut-off read from the data, not from the text of the source: active = GI50 up to about 1.1 µM and inactive = higher.

Among the test systems are OVCAR-3; TK-10; HCT-15; HL-60; U-251; Malme-3M; HCT-116; SNB-75; UACC-257; SF-268; SF-539; OVCAR-4; SN12C; M14; A498; HOP-92; SK-OV-3.
Assay in all cases: NCI-60 cell line screen, 48 h

Take `CNS(=O)(=O)NN(C)S(=O)(=O)c1ccc(Cl)cc1`: the GI50 in the assay with OVCAR-3 was > 100 µM (inactive); in the assay with TK-10, > 100 µM (inactive); in the assay with HCT-15 it was above 100 µM; with HL-60, > 100 µM (inactive); in the assay with U-251, 83 µM (inactive); in the assay on Malme-3M it was > 100 µM (inactive). The GI50 with HCT-116, in the assay on SNB-75, in the assay on UACC-257, with SF-268, in the assay on SF-539 and with OVCAR-4 was > 100 µM (inactive) throughout. For the same compound, the GI50 in the assay with SN12C, in the assay with M14 and with A498 was > 100 µM (inactive) each time.

For the compound `COC(OC)c1cc2c(cc1C=O)OCO2`, the GI50 with OVCAR-3 is 75.5 µM (inactive); with TK-10 it was > 100 µM (inactive); with HL-60, 47.2 µM (inactive); in the assay on U-251 it was > 100 µM (inactive); in the assay on HOP-92, 80.7 µM (inactive); in the assay on Malme-3M, 0.276 µM (active). Also, the GI50 with HCT-116 is > 100 µM (inactive); in the assay with SNB-75, 21.2 µM (inactive); in the assay with UACC-257, > 100 µM (inactive); with SF-268, > 100 µM (inactive); with SF-539, > 100 µM (inactive); in the assay on OVCAR-4, > 100 µM (inactive). The GI50 in the assay on SN12C was > 100 µM (inactive); with M14 it was 48.9 µM (inactive); in the assay on SK-OV-3, 43.8 µM (inactive).

Regarding `CC(=O)N(CCN)CCN`, the GI50 with OVCAR-3 was > 10 µM (inactive); in the assay on TK-10 it was > 10 µM (inactive); with HCT-15 it was above 100 µM; in the assay with HL-60, > 10 µM (inactive); in the assay on U-251, > 10 µM (inactive); with HOP-92, > 10 µM (inactive). In addition, the GI50 is > 10 µM (inactive) in the assay with HCT-116; > 100 µM (inactive) with SNB-75; > 10 µM (inactive) with UACC-257; > 100 µM (inactive) in the assay with SF-268; > 10 µM (inactive) in the assay with OVCAR-4; > 10 µM (inactive) in the assay with SN12C. Besides, the GI50 in the assay with M14 was > 10 µM (inactive); in the assay with SK-OV-3, > 100 µM (inactive); in the assay on A498 it was > 10 µM (inactive).

`COc1ccc(C2C(Cl)C(=O)N2NC(=O)Cc2ccccc2)cc1OC` (centres undefined): the GI50 in the assay on OVCAR-3 is > 100 µM (inactive); in the assay on TK-10 it was > 100 µM (inactive); with HCT-15, above 100 µM; in the assay on HL-60, > 100 µM (inactive); in the assay with U-251, > 100 µM (inactive); in the assay with Malme-3M, > 100 µM (inactive). Further, the GI50 with HCT-116, with SNB-75, in the assay with UACC-257, in the assay on SF-268, with OVCAR-4 and in the assay on SN12C was > 100 µM (inactive) each time. The GI50 in the assay on M14 and with SK-OV-3 was > 100 µM (inactive) each time.

Regarding `CC(=O)NNc1nc(C)c(C(=O)NNC(=O)C(=O)Nc2c(C)cccc2C(C)(C)C)s1`, the GI50 with TK-10 was > 100 µM (inactive); in the assay on HCT-15 it was 59.7 µM; in the assay with HL-60 it was 33.3 µM (inactive); in the assay with U-251 it was 58.7 µM (inactive); with HOP-92, > 100 µM (inactive); with HCT-116, 75.2 µM (inactive). Further, the GI50 in the assay on SNB-75 was > 100 µM (inactive); with UACC-257 it was > 100 µM (inactive); in the assay with SF-268, > 100 µM (inactive); with SF-539 it was > 100 µM (inactive); in the assay on OVCAR-4, 40.3 µM (inactive); with SN12C it was 44.2 µM (inactive). Moreover, the GI50 with M14, with SK-OV-3 and in the assay on A498 was > 100 µM (inactive) in each case.

As for `Cc1ccc(C2CC(c3ccc([N+](=O)[O-])cc3)=Nc3ccccc3S2)cc1` (centres undefined), the GI50 in the assay with OVCAR-3 was 24.7 µM (inactive); in the assay on TK-10, 34.8 µM (inactive); with HCT-15 it was 18 µM; in the assay on HL-60, 19.8 µM (inactive); in the assay on Malme-3M, 50.8 µM (inactive); in the assay on SNB-75, 21.4 µM (inactive). Further, the GI50 with UACC-257 was 28.6 µM (inactive); in the assay on SF-268 it was 24.4 µM (inactive); with SF-539, 26.2 µM (inactive); in the assay with OVCAR-4 it was 23.7 µM (inactive); in the assay with SN12C, 25.5 µM (inactive); with M14, 28.3 µM (inactive). Besides, the values for the GI50 in the assay with SK-OV-3 and in the assay on A498 were 89.9 µM (inactive) and 16.3 µM (inactive), respectively.

Regarding `CCC(C)n1c(C)nc2c1C(=O)c1ccccc1C2=O` (centres undefined), the GI50 in the assay with OVCAR-3 is 32.5 µM (inactive); in the assay with TK-10, 94.6 µM (inactive); in the assay on HCT-15 it was 27.2 µM; with HL-60, 14.5 µM (inactive); with U-251, 44.8 µM (inactive); in the assay on HOP-92, 22.1 µM (inactive). Further, the GI50 was 32.2 µM (inactive) in the assay with Malme-3M; 31.6 µM (inactive) with HCT-116; 42.8 µM (inactive) in the assay on SNB-75; 27.9 µM (inactive) in the assay with UACC-257; 30.8 µM (inactive) in the assay with SF-268; 32.7 µM (inactive) with SF-539. Also, the GI50 is 73.1 µM (inactive) in the assay with OVCAR-4, 57.8 µM (inactive) in the assay with SN12C, > 100 µM (inactive) in the assay on M14 and > 100 µM (inactive) in the assay with SK-OV-3.

As to `O=c1c2cccnc2ncn1CCCN1CCCCC1`, the GI50 in the assay on OVCAR-3, with TK-10, in the assay on U-251, with HOP-92, in the assay with Malme-3M and in the assay on HCT-116 was > 100 µM (inactive) in each case. In addition, the GI50 in the assay on SNB-75, with SF-268, in the assay with SF-539, with OVCAR-4, in the assay with SN12C and in the assay on M14 was > 100 µM (inactive) each time. The GI50 with SK-OV-3 is > 100 µM (inactive).

In the case of `Cc1nc2c(=O)[nH]c(=O)n(C)c2[nH]c1=O.c1ccncc1`, the GI50 was > 100 µM (inactive) in the assay on OVCAR-3; > 100 µM (inactive) in the assay with TK-10; above 100 µM in the assay on HCT-15; > 100 µM (inactive) in the assay on HL-60; > 100 µM (inactive) in the assay with U-251; > 100 µM (inactive) with HOP-92. For the same compound, the GI50 in the assay with Malme-3M, in the assay with HCT-116, with SNB-75, with UACC-257, in the assay on SF-268 and in the assay on OVCAR-4 was > 100 µM (inactive) in each case. The GI50 in the assay on SN12C, in the assay with M14, in the assay on SK-OV-3 and in the assay with A498 was > 100 µM (inactive) in each case.

As for `c1ccc(-c2ccnc3c2ccc2c(-c4ccccc4)ccnc23)cc1`, the GI50 with OVCAR-3 is 2.47 µM (inactive); in the assay on TK-10 it was 0.279 µM (active); in the assay with HCT-15 it was 1.06 µM; in the assay with HL-60, 0.809 µM (active); with U-251, 1.17 µM (inactive); in the assay with Malme-3M, 4.06 µM (inactive). For the same compound, the GI50 in the assay on HCT-116 was 0.555 µM (active); in the assay on SNB-75, 2.92 µM (inactive); in the assay with UACC-257, 2.28 µM (inactive); with SF-268, 3.12 µM (inactive); with SF-539, 2.06 µM (inactive); in the assay on OVCAR-4, 2.28 µM (inactive). The GI50 with SN12C was 2.26 µM (inactive); in the assay on M14, 3.37 µM (inactive); in the assay with SK-OV-3 it was 2.65 µM (inactive); in the assay on A498, 2.53 µM (inactive).
